Patent US10174021B2, “Substituted pyrazolo[1,5-A]pyridines and their use” (BAYER PHARMA AKTIENGESELLSCHAFT, priority 2014, dated 2019)
Structures can show the parent of a compound that is named as a salt.

Test system: recombinant guanylate cyclase reporter cell line
Test: Effect on a recombinant guanylate cyclase reporter cell line
Type: cell-based
Settings: in some cases mean values from individual determinations, read-out: MEC (minimum effective concentration)
Procedure: B-2. Effect on a Recombinant Guanylate Cyclase Reporter Cell Line
The cellular activity of the compounds according to the invention is determined using a recombinant guanylate cyclase reporter cell line, as described in F. Wunder et al., Anal. Biochem. 339, 104-112 (2005).
Representative MEC values (MEC=minimum effective concentration) for the compounds of the invention are shown in the table below (in some cases as mean values from individual determinations): […]

Question: `Cc1cc(OCc2c(F)cccc2F)n2nc(C)c(-c3cncc(C(=O)O)c3)c2c1` [Example 27, 5-{7-[(2,6-Difluorobenzyl)oxy]-2,5-dimethylpyrazolo[1,5-a]pyridin-3-yl}nicotinic acid] was tested. Which minimal effective concentration did it give?
Answer: The minimal effective concentration was 2 µM.

Question: How did the minimal effective concentration turn out when `Cc1cc(OCc2c(F)cccc2F)n2nc(C)c(-c3cncc(C(N)=O)c3)c2c1` [Example 28, 5-{7-[(2,6-Difluorobenzyl)oxy]-2,5-dimethylpyrazolo[1,5-a]pyridin-3-yl}nicotinamide] was run?
Answer: The minimal effective concentration was 0.03 µM.

Question: How did the minimal effective concentration turn out when `Cc1cc(OCc2c(F)cccc2F)n2nc(C)c(-c3cncnc3)c2c1` [Example 29, 7-[(2,6-Difluorobenzyl)oxy]-2,5-dimethyl-3-(pyrimidin-5-yl)pyrazolo[1,5-a]pyridine] was run?
Answer: Its minimal effective concentration is 0.3 µM.

Question: Which minimal effective concentration does the source give for `Cc1cc(OCc2c(F)cccc2F)n2nc(C3CC3)c(-c3cnn(CCN4CCOCC4)c3)c2c1` [Example 30, 2-Cyclopropyl-7-[(2,6-difluorobenzyl)oxy]-5-methyl-3-{1-[2-(morpholin-4-yl)ethyl]-1H-pyrazol-4-yl}pyrazolo[1,5-a]pyridine] here?
Answer: The minimal effective concentration was 0.01 µM.

Question: `Cc1cc(OCc2c(F)cccc2F)n2nc(C3CC3)c(-c3cn[nH]c3)c2c1` [Example 31, 2-Cyclopropyl-7-[(2,6-difluorobenzyl)oxy]-5-methyl-3-(1H-pyrazol-4-yl)pyrazolo[1,5-a]pyridine] was tested. Which minimal effective concentration did it give?
Answer: Its minimal effective concentration is 0.03 µM.

Question: Which minimal effective concentration does the source give for `Cc1cc(OCc2c(F)ccc(F)c2F)n2nc(C)c(-c3cnn(CCN4CCOCC4)c3)c2c1` [Example 32, 2,5-Dimethyl-3-{1-[2-(morpholin-4-yl)ethyl]-1H-pyrazol-4-yl}-7-[(2,3,6-trifluorobenzyl)oxy]pyrazolo[1,5-a]pyridine trifluoroacetate] here?
Answer: The minimal effective concentration was 0.1 µM.

Question: With `Cc1cc(OCC2CCCCC2)n2nc(C)c(-c3cnn(CCN4CCOCC4)c3)c2c1` [Example 33, 7-(Cyclohexylmethoxy)-2,5-dimethyl-3-{1-[2-(morpholin-4-yl)ethyl]-1H-pyrazol-4-yl}pyrazolo[1,5-a]pyridine] as the molecule, how does the minimal effective concentration read?
Answer: The minimal effective concentration was 0.1 µM.

Question: With `Cc1cc(OCc2c(F)cccc2F)n2nc(C)c(-c3nc(N)c4c(n3)NC(=O)C4(C)C)c2c1` [Example 34, 4-Amino-2-{7-[(2,6-difluorobenzyl)oxy]-2,5-dimethylpyrazolo[1,5-a]pyridin-3-yl}-5,5-dimethyl-5,7-dihydro-6H-pyrrolo[2,3-d]pyrimidin-6-one trifluoroacetate] as the molecule, how does the minimal effective concentration read?
Answer: Its minimal effective concentration is 1 µM.

Question: Which minimal effective concentration does the source give for `Cc1cc(OCc2c(F)cccc2F)n2nc(C)c(-c3nc(NCC(C)(C)N)c4c(n3)NC(=O)C4(C)C)c2c1` [Example 35, 4-[(2-Amino-2-methylpropyl)amino]-2-{7-[(2,6-difluorobenzyl)oxy]-2,5-dimethylpyrazolo[1,5-a]pyridin-3-yl}-5,5-dimethyl-5,7-dihydro-6H-pyrrolo[2,3-d]pyrimidin-6-one] here?
Answer: The minimal effective concentration was 3 µM.
